Test results as given in the NIST ThermoML archive (doi:10.1016/j.jct.2018.06.015).
± gives the expanded uncertainty stated by the source.

What was measured:
[1] = xn = mol fraction of the nth substance listed; conditions: 100 kPa, Liquid, x2 = 0; for speed of sound: Frequency=3 MHz, Single path-length method; for mass density: Vibrating tube method
[2] = 100 kPa, Liquid; for speed of sound: Frequency=3 MHz, Single path-length method; for mass density: Vibrating tube method

speed of sound ([1]; 293.15 K) [m/s]	mass density ([1]; 293.15 K) [kg/m3]	speed of sound ([1]; 298.15 K) [m/s]	mass density ([1]; 298.15 K) [kg/m3]	speed of sound ([1]; 303.15 K) [m/s]	mass density ([1]; 303.15 K) [kg/m3]	speed of sound ([1]; 308.15 K) [m/s]	mass density ([1]; 308.15 K) [kg/m3]	speed of sound ([1]; 313.15 K) [m/s]	mass density ([1]; 313.15 K) [kg/m3]	speed of sound ([2]; 293.15 K) [m/s]	mass density ([2]; 293.15 K) [kg/m3]	speed of sound ([2]; 298.15 K) [m/s]	mass density ([2]; 298.15 K) [kg/m3]	speed of sound ([2]; 303.15 K) [m/s]	mass density ([2]; 303.15 K) [kg/m3]	speed of sound ([2]; 308.15 K) [m/s]	mass density ([2]; 308.15 K) [kg/m3]	speed of sound ([2]; 313.15 K) [m/s]	mass density ([2]; 313.15 K) [kg/m3]	Structure (SMILES)
1320.4 ± 2.5	819.239 ± 0.42	1303.5 ± 2.5	815.652 ± 0.42	1286.7 ± 2.5	812.043 ± 0.42	1270 ± 2.5	808.402 ± 0.42	1253.5 ± 2.5	804.743 ± 0.42	–	–	–	–	–	–	–	–	–	–	CCCCCCO [hexan-1-ol] + CCCCOCCOCCO
1396.7 ± 2.5	829.898 ± 0.42	1379.4 ± 2.5	826.489 ± 0.42	1362.4 ± 2.5	823.069 ± 0.42	1345.6 ± 2.5	819.635 ± 0.42	1329.1 ± 2.5	816.188 ± 0.42	–	–	–	–	–	–	–	–	–	–	CCCCCCCCCCO [decan-1-ol] + CCCCOCCOCCO
1364.1 ± 2.4	825.337 ± 0.41	1347.3 ± 2.4	821.877 ± 0.41	1331 ± 2.4	818.4 ± 0.41	1314.3 ± 2.4	814.903 ± 0.41	1297.7 ± 2.4	811.385 ± 0.41	–	–	–	–	–	–	–	–	–	–	CCCCCCCCO [octan-1-ol] + CCCCOCCOCCO
–	–	–	–	–	–	–	–	–	–	1378.2 ± 2.5	952.288 ± 0.41	1361.3 ± 2.5	948.1 ± 0.41	1344.5 ± 2.5	943.909 ± 0.41	1326.4 ± 2.5	939.704 ± 0.41	1307.7 ± 2.5	935.503 ± 0.41	CCCCOCCOCCO [3,6-dioxa-1-decanol]
